According to ChEMBL document CHEMBL1152913, “Discovery of 4-azaindoles as novel inhibitors of c-Met kinase” (Bioorg Med Chem Lett, 2009):
Values belong to the compound of their own block, whether it stands above or below them. Activity calls are given as the source filed them. No cut-off for these calls is given here.

Tests used:
[1] = molecular target: T1, Hepatocyte growth factor receptor (Homo sapiens, UniProt P08581)
Description: (§1) Inhibition of human recombinant His-tagged c-Met by TR-FRET assay

Hepatocyte = experiment: Clearance rate in hepatocytes; assay type: ADME, cell-based, Liver
[2] = molecular target: T1, Hepatocyte growth factor receptor; experiment: Inhibition of human recombinant His-tagged c-Met at 20 uM by TR-FRET assay
[3] = molecular target: RAC-alpha serine/threonine-protein kinase (Homo sapiens) (UniProt P31749); experiment: Inhibition of AKT assessed as residual activity at 20 uM
[4] = molecular target: Mitogen-activated protein kinase 1 (Homo sapiens) (UniProt P28482); experiment: Inhibition of ERK2 phosphorylation in human MKN45 cells after 1 hr by Western blot analysis; assay type: cell-based; settings: MKN-45
[5] = molecular target: Mitogen-activated protein kinase 3 (Homo sapiens) (UniProt P27361); experiment: Inhibition of ERK1 assessed as residual activity at 20 uM
[6] = molecular target: RAC-alpha serine/threonine-protein kinase (Homo sapiens) (UniProt P31749); experiment: Inhibition of AKT phosphorylation in human MKN45 cells after 1 hr by Western blot analysis; assay type: cell-based; settings: MKN-45
[7] = molecular target: High affinity nerve growth factor receptor (Homo sapiens) (UniProt P04629); experiment: Inhibition of TrkA assessed as residual activity at 20 uM
[8] = molecular target: T1, Hepatocyte growth factor receptor; experiment: Inhibition of c-Met phosphorylation in human A549 cells after 1 hr; assay type: cell-based
[9] = molecular target: T2, Tyrosine-protein kinase Mer (Homo sapiens) (UniProt Q12866); experiment: Inhibition of Mer assessed as residual activity at 20 uM
T2 sequence (whole entry): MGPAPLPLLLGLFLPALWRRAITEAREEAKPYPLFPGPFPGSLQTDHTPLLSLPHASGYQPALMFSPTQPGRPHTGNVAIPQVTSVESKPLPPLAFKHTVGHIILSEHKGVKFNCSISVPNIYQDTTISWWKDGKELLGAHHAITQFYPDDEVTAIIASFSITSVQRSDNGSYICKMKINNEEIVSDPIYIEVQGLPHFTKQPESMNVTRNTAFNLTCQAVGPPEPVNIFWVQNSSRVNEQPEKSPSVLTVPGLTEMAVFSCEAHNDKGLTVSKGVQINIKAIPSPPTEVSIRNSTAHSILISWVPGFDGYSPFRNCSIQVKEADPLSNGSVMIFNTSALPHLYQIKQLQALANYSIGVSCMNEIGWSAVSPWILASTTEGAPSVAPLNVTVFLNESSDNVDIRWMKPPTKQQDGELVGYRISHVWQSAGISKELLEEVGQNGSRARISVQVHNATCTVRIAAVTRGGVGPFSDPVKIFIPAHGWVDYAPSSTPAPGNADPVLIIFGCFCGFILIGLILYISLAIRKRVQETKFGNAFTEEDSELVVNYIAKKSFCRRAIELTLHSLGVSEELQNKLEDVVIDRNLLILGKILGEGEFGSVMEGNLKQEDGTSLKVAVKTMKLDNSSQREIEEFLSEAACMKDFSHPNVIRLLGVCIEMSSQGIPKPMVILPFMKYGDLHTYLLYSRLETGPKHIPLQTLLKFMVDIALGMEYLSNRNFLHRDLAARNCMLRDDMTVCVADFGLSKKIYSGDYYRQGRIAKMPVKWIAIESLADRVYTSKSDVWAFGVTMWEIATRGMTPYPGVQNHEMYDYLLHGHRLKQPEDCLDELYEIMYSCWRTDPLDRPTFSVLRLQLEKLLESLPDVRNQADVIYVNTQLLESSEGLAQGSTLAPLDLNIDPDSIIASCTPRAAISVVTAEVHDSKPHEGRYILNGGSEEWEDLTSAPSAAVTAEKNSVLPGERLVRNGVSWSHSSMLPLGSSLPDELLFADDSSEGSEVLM

[10] = molecular target: Mitogen-activated protein kinase 1 (Homo sapiens) (UniProt P28482); experiment: Inhibition of ERK2 assessed as residual activity at 20 uM
[11] = molecular target: Mitogen-activated protein kinase 3 (Homo sapiens) (UniProt P27361); experiment: Inhibition of ERK1 phosphorylation in human MKN45 cells after 1 hr by Western blot analysis; assay type: cell-based; settings: MKN-45
[12] = molecular target: T1, Hepatocyte growth factor receptor; experiment: Inhibition of c-Met phosphorylation in human MKN45 cells after 1 hr; assay type: cell-based, MKN-45
[13] = molecular target: Vascular endothelial growth factor receptor 2 (Homo sapiens) (UniProt P35968); experiment: Inhibition of KDR assessed as residual activity at 20 uM
[14] = molecular target: Macrophage-stimulating protein receptor (Homo sapiens) (UniProt Q04912); experiment: Inhibition of Ron assessed as residual activity at 20 uM
[15] = molecular target: T1, Hepatocyte growth factor receptor; remark: listed apart in the source
Description: as §1

SMILES: c1ccc(Cn2ccc3ncccc32)cc1
- IC50 [1]: Inactive

SMILES: O=[N+]([O-])c1ccc(S(=O)(=O)n2ccc3ncccc32)cc1
- inhibition [2]: 16%

Second part, the compound after the results:

- CL (Hepatocyte): 0.3 s⁻¹
SMILES: O=S(=O)(c1c(Cl)nc2sccn12)n1ccc2ncc(-c3cnn(C4CCNCC4)c3)cc21

- Activity [3]: 88%
- inhibition [4]: Active
- Activity [5]: 88%
- inhibition [6]: Active
- Activity [7]: 18%
- IC50 [8]: 130 nM
- Activity [9]: 19%
- inhibition [10]: inactive
- inhibition [11]: Active
- IC50 [12]: 200 nM
- Activity [13]: 3%
- Activity [14]: 29%
- IC50 [15]: 9 nM
SMILES: O=S(=O)(c1cccc2nonc12)n1ccc2ncc(-c3cnn(C4CCNCC4)c3)cc21

- CL (Hepatocyte): 1 s⁻¹
SMILES: O=S(=O)(c1c(Cl)nc2sccn12)n1ccc2ncc(N3CCNCC3)cc21
